Laboratory results as given in patent US20250248980A1, “IMMUNE MODULATORY AGENTS” (PRESIDENT AND FELLOWS OF HARVARD COLLEGE, priority 2022, published 2025).
pIC50: −log10 of the molar value. “Also recorded” adds a separate entry of the source.

Assays:
Assay type in all cases: cell-based
[1] = test system: TNF-a downstream genes; assay: TNF-a-dependent gene expression in three cell lines (RT-qPCR, secondary assays, FIG. 12); settings: 10 μM compound, 5 ng/ml TNF-a, 24 hours, THP-1, 293T, HepG2 cells
Experimental: (§1) THP-1 (FIG. 12A), 293T (FIG. 12B), and HepG2 (FIG. 12C) cells were cultured and stimulated with 5 ng/ml TNF-a for 24 hours. During the treatment, 10 μM of each compound was added. RT-qPCR was used to analyze the expression levels of selected TNF-a downstream genes (IL1b, CCL4 and CXCL1 in THP-1 cells in FIG. 12A; IL18, VCAM, and CXCL10 in 293T cells in FIG. 12B; and IL18, CXCL1, and CXCL5 in HepG2 cells in FIG. 12C).

[2] = target: T1, TNF-a receptor (TNF-R1 reporter cells) (Homo sapiens, UniProt P19438); assay: TNF-a-receptor GFP reporter cell screen; settings: for specificity for TNF-a-receptor reporter over other cytokine receptor reporters: in words; for pIC50 / Emax: reducing TNF-a-receptor reporter activities; for pIC50: GFP percentage by microscope, 48 hours; for Emax: maximal effect at high compound concentrations, read-out: Emax
T1 construct: expressed in transfected cells; development described in WO2022125865A2
Experimental: FIG. 5 is a dot plot showing the identification of small-molecule compounds that reduce IL-17A or TNF-a receptor activities. Small-molecule screens were performed with 114,665 compounds. Individual compounds were added to IL-17A-reporters or TNF-a-reporters following the addition of respective ligands such as IL-17A or TNF-a (25 ng/ml). The reporter cells were then incubated for additional 48 hours before subjecting them for microscopic analyses (GFP percentage was measured by microscope). Anti-IL17A and anti-TNFa antibodies were used as the positive controls.
The IL-17RA/IL-17RC reporter system was used to identify the IL-17a-specific immune modulatory agents, as described herein (see e.g., compounds (1)-(16)). Furthermore, the IL-17A systems and methods were applied to generate other cytokine/cytokine receptor reporter system (tTA fused onto one receptor subunit via a protease cleavage site, TEV fused to another receptor subunit, optimal linkers inserted between different proteins to ensure high signal-to-background ratio; e.g., for identifying TNF-α-specific immune modulatory agents). The screening platform provided herein was used to identify immune modulatory agents including, but not limited to, small molecules and proteins that modulate IL-17A or TNF-α cytokine signaling.
Two thousand reporter cells per well (384-well plates) were seeded in 30 ul cell culture medium with either IL-17A (25 ng/ml, unless otherwise indicated) or TNFa ligand (25 ng/ml, unless otherwise indicated); additional screens were performed with IL-17A at 7.5 ng/ml. Then 100 nl of the individual compound was added by a pin transfer and cultured for two days in a CO2 incubator. For the cell viability test, 10 ul HOECHST 33342 was added and incubated for 10 min, followed by the addition of 10 ul 4% PFA. After a 10 min incubation, the reporter cells were washed twice with phosphate-buffered saline (PBS) and kept in 30 ul PBS. The images were acquired and analyzed using an IMAGEXPRESS confocal microscope. For storage, plates were sealed with black light-absorbing films.

[3] = test system: TNF-a downstream genes in THP-1 cells; assay: TNF-a-dependent gene expression in THP-1 cells (RT-qPCR, FIG. 12A); settings: 10 μM compound, 5 ng/ml TNF-a, 24 hours; IL1b, CCL4, CXCL1
Experimental: as §1

[4] = test system: TNF-a downstream genes in 293T cells; assay: TNF-a-dependent gene expression in 293T cells (RT-qPCR, FIG. 12B); settings: 10 μM compound, 5 ng/ml TNF-a, 24 hours; IL18, VCAM, CXCL10
Experimental: as §1

[5] = test system: TNF-a downstream genes in HepG2 cells; assay: TNF-a-dependent gene expression in HepG2 cells (RT-qPCR, FIG. 12C); settings: 10 μM compound, 5 ng/ml TNF-a, 24 hours; IL18, CXCL1, CXCL5
Experimental: as §1

Structure (SMILES)	effect on TNF-a-dependent gene expression [1]	specificity for TNF-a-receptor reporter over other cytokine receptor reporters [2]	pIC50 [2]	Emax [2]	effect on TNF-a-dependent gene expression in THP-1 cells [3]	effect on TNF-a-dependent gene expression in 293T cells [4]	effect on TNF-a-dependent gene expression in HepG2 cells [5]
CC(C)CCN1C2CCNc3ccccc3CN(C(=O)CCCn3cncn3)CC1CC2 (racemic) [Compound 43]	inhibitory effects against some of TNF-a downstream genes	–	–	–	–	–	–
CC(=O)N1CCCN(S(C)(=O)=O)CCN(Cc2cccc(F)c2O)Cc2ccccc21 [Compound 15]	inhibitory effects against some of TNF-a downstream genes	–	–	–	–	–	–
O=c1ccc(-c2ccccc2)nn1Cc1c(F)cccc1Cl [Compound 19]	inhibitory effects against some of TNF-a downstream genes	reduce TNF-a-, not IL-17A-, receptor reporter activities	5.13	98%	robust inhibitory effects	enhanced effects	enhanced effects
O=C(CSc1c2c(nc3ccccc13)CCC2)Nc1ccc(F)cc1 [Compound 39]	inhibitory effects against some of TNF-a downstream genes; also recorded: robust inhibitory effects	reduce TNF-a-, not IL-17A-, receptor reporter activities	5.05	78%	–	–	–
